Experimental data published in US7718612B2, “Pyridazinonyl macrocyclic hepatitis C serine protease inhibitors” (Enanta Pharmaceuticals, Inc., priority 2006, dated 2010).
Read-outs that look alike come from different tables or passages of the source.

Experiments:
[1] = molecular target: T1, full-length NS3 HCV protease 1b tethered with NS4A cofactor (Hepatitis C virus genotype 1b, UniProt Q9WMX2); assay: NS3/NS4a Protease Enzyme Assay; format: biochemical
T1 construct: full-length NS3 HCV protease 1b tethered with NS4A cofactor; NS4A cofactor (tethered, fused to NS3)
Experimental: HCV protease activity and inhibition is assayed using an internally quenched fluorogenic substrate. A DABCYL and an EDANS group are attached to opposite ends of a short peptide. Quenching of the EDANS fluorescence by the DABCYL group is relieved upon proteolytic cleavage. Fluorescence is measured with a Molecular Devices Fluoromax (or equivalent) using an excitation wavelength of 355 nm and an emission wavelength of 485 nm.
The assay is run in Corning white half-area 96-well plates (VWR 29444-312 [Corning 3693]) with full-length NS3 HCV protease 1b tethered with NS4A cofactor (final enzyme concentration 1 to 15 nM). The assay buffer is complemented with 10 μM NS4A cofactor Pep 4A (Anaspec 25336 or in-house, MW 1424.8). RET S1 (Ac-Asp-Glu-Asp(EDANS)-Glu-Glu-Abu-[COO]Ala-Ser-Lys-(DABCYL)-NH2, AnaSpec 22991, MW 1548.6) is used as the fluorogenic peptide substrate. The assay buffer contains 50 mM Hepes at pH 7.5, 30 mM NaCl and 10 mM BME. The enzyme reaction is followed over a 30 minutes time course at room temperature in the absence and presence of inhibitors.
The peptide inhibitors HCV Inh 1 (Anaspec 25345, MW 796.8) Ac-Asp-Glu-Met-Glu-Glu-Cys-OH, [−20° C.] and HCV Inh 2 (Anaspec 25346, MW 913.1) Ac-Asp-Glu-Dif-Cha-Cys-OH, are used as reference compounds.
IC50 values are calculated using XLFit in ActivityBase (IDBS) using equation 205: y=A+((B−A)/(1+((C/x)^D))).

[2] = tested on: HCV replicon RNA in Huh 11-7 cell line; assay: Cell-Based Replicon Assay; conditions: Hepatitis C virus, 96 h, read-out: EC50 in the Cell-Based Replicon Assay
Experimental: Quantification of HCV replicon RNA (HCV Cell Based Assay) is accomplished using the Huh 11-7 cell line (Lohmann, et al Science 285:110-113, 1999). Cells are seeded at 4×10^3 cells/well in 96 well plates and fed media containing DMEM (high glucose), 10% fetal calf serum, penicillin-streptomycin and non-essential amino acids. Cells are incubated in a 7.5% CO2 incubator at 37° C. At the end of the incubation period, total RNA is extracted and purified from cells using Ambion RNAqueous 96 Kit (Catalog No. AM1812). To amplify the HCV RNA so that sufficient material can be detected by an HCV specific probe (below), primers specific for HCV (below) mediate both the reverse transcription of the HCV RNA and the amplification of the cDNA by polymerase chain reaction (PCR) using the TaqMan One-Step RT-PCR Master Mix Kit (Applied Biosystems catalog no. 4309169). The nucleotide sequences of the RT-PCR primers, which are located in the NS5B region of the HCV genome, are the following:
Detection of the RT-PCR product is accomplished using the Applied Biosystems (ABI) Prism 7500 Sequence Detection System (SDS) that detects the fluorescence that is emitted when the probe, which is labeled with a fluorescence reporter dye and a quencher dye, is degraded during the PCR reaction. The increase in the amount of fluorescence is measured during each cycle of PCR and reflects the increasing amount of RT-PCR product. Specifically, quantification is based on the threshold cycle, where the amplification plot crosses a defined fluorescence threshold. […] The data is analyzed using the ABI SDS program version 1.7. […]
The RT-PCR product was detected using the following labeled probe: […]
To normalize the data to an internal control molecule within the cellular RNA, RT-PCR is performed on the cellular messenger RNA glyceraldehyde-3-phosphate dehydrogenase (GAPDH). […] GAPDH RT-PCR is performed on the same RNA sample from which the HCV copy number is determined. […] The ratio of HCV/GAPDH RNA is used to calculate the activity of compounds evaluated for inhibition of HCV RNA replication. […]

[3] = Huh 11-7 cells, 4 days, HCV/GAPDH RNA ratio

T1 sequence (Q9WMX2 1013-1657, looked up, natural form): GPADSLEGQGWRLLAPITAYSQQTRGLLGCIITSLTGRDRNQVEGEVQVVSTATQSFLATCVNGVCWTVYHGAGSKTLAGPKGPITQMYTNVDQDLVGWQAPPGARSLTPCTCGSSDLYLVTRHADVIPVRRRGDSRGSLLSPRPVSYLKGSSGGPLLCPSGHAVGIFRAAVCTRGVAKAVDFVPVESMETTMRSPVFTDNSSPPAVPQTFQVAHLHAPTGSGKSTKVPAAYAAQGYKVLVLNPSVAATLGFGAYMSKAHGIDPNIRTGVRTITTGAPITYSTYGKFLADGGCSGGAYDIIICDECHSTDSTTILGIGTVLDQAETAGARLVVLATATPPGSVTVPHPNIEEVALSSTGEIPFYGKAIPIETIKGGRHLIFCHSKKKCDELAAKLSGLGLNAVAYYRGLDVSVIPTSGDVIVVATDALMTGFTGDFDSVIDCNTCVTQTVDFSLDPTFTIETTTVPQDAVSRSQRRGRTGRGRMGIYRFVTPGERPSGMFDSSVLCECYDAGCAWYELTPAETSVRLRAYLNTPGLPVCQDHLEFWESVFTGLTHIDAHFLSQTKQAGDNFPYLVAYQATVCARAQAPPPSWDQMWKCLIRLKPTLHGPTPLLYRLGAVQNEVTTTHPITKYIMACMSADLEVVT

Structure (SMILES) | IC50 [1] [nM] | EC50 [2] [nM] | EC50 [2, 3] [nM]
COc1c(-c2cccc3ccccc23)cnn([C@@H]2C[C@H]3C(=O)N[C@]4(C(=O)NS(=O)(=O)C5CC5)C[C@H]4/C=C\CCCCC[C@H](NC(=O)OC(C)(C)C)C(=O)N3C2)c1=O [Example 30] | 0.1 | < 0.2 | –
COc1c(-c2cccc3ccccc23)cnn(C2CC3C(=O)NC4(C(=O)NS(=O)(=O)C5CC5)CC4C=CCCCCCC(NC(=O)OC4CCCC4)C(=O)N3C2)c1=O (stereo not drawn) [Example 32] | 0.4 | – | < 0.2
COc1c(-c2cccc3ccccc23)cnn(C2CC3C(=O)NC4(C(=O)NS(=O)(=O)C5CC5)CC4C=CCCCCCC(NC(=O)c4cccs4)C(=O)N3C2)c1=O (stereo not drawn) [Example 34] | 0.2 | – | < 0.2
